Drawing on patent US20110237533A1, “NOVEL POLYPHENOL COMPOUND” (priority 2008, published 2011), this text covers inhibition for two compounds.

Where two headings read alike, the source gives them in different places.

For this assay, the target named is T1, pancreatic lipase derived from swine (Sus scrofa, UniProt P00591).
T1 construct: purchased Sigma Ltd
T1 sequence (P00591 1-450): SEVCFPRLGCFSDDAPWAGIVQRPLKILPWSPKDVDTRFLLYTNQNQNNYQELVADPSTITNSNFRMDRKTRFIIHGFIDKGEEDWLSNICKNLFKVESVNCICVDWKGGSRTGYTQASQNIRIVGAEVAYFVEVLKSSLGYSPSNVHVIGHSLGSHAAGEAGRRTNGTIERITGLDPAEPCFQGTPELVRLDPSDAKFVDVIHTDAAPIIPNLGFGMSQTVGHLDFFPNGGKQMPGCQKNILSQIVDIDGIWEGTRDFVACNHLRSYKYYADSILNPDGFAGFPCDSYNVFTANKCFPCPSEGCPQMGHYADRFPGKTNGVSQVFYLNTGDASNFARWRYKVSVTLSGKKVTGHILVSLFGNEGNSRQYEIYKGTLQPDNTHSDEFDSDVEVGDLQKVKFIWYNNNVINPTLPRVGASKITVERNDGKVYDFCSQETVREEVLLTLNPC
Description: lipase inhibitory test (4-MUO substrate, fluorescence). Type of assay: biochemical. The note with it: read-out: lipase inhibitory activity (%).

Consider `O=C(O)c1cc(O)c(O)c(O)c1` [gallic acid], for which the inhibition at 250 µM (sample concentration 250 μM, 4-MUO substrate, 37° C., 30 minutes) came to 50%.

For `O=c1c(O)c(-c2ccc(O)c(O)c2)oc2cc(O)cc(O)c12` [quercetin], the inhibition at 250 µM amounted to 64.3%.
